{"source": "PubChem BioAssay AID1259407", "about": "(Chemical Carcinogenesis Research Information System (CCRIS), 2018)", "system": "CCRIS mutagenicity, Ames/micronucleus/aberration tests", "assay": "CCRIS mutagenicity studies", "key": {"[1]": {"details": "Test System: AMES SALMONELLA TYPHIMURIUM, Strain/Indicator: TA98, Metabolic Activation: NONE, Method: PREINCUBATION"}, "[2]": {"details": "Test System: AMES SALMONELLA TYPHIMURIUM, Strain/Indicator: TA98, Metabolic Activation: RAT, LIVER, S-9, AROCLOR 1254, Method: STANDARD PLATE"}, "[3]": {"details": "Test System: AMES SALMONELLA TYPHIMURIUM, Strain/Indicator: TA100, Metabolic Activation: NONE, Method: PREINCUBATION"}, "[4]": {"details": "Test System: AMES SALMONELLA TYPHIMURIUM, Strain/Indicator: TA100, Metabolic Activation: RAT, LIVER, S-9, AROCLOR 1254, Method: STANDARD PLATE"}}, "note": "Calls of active or inactive are those of the source. The rule behind the calls is not given here.", "data": [{"smiles": "Cc1c(N(C)C)c(=O)n(-c2ccccc2)n1C", "values": [{"measurement": "mutagenic call", "setting": "Test System: AMES SALMONELLA TYPHIMURIUM, Strain/Indicator: TA97, Metabolic Activation: NONE, Method: STANDARD PLATE", "value": "inactive; negative"}, {"measurement": "mutagenic call", "setting": "Test System: AMES SALMONELLA TYPHIMURIUM, Strain/Indicator: TA97, Metabolic Activation: RAT, LIVER, S-9, AROCLOR 1254, Method: STANDARD PLATE", "value": "inactive; negative"}, {"measurement": "mutagenic call", "setting": "Test System: AMES SALMONELLA TYPHIMURIUM, Strain/Indicator: TA98, Metabolic Activation: GUINEA PIG, LIVER, S-9, PCB, Method: PREINCUBATION", "value": "inactive; negative"}, {"measurement": "mutagenic call", "setting": "Test System: AMES SALMONELLA TYPHIMURIUM, Strain/Indicator: TA98, Metabolic Activation: HAMSTER, LIVER, S-9, PCB, Method: PREINCUBATION", "value": "inactive; negative"}, {"measurement": "mutagenic call", "setting": "Test System: AMES SALMONELLA TYPHIMURIUM, Strain/Indicator: TA98, Metabolic Activation: MOUSE, LIVER, S-9, PCB, Method: PREINCUBATION", "value": "inactive; negative"}, {"measurement": "mutagenic call", "setting": "[1]", "value": "inactive; negative"}, {"measurement": "mutagenic call", "setting": "Test System: AMES SALMONELLA TYPHIMURIUM, Strain/Indicator: TA98, Metabolic Activation: NONE, Method: STANDARD PLATE", "value": "inactive; negative"}, {"measurement": "mutagenic call", "setting": "[2]", "value": "inactive; negative"}, {"measurement": "mutagenic call", "setting": "Test System: AMES SALMONELLA TYPHIMURIUM, Strain/Indicator: TA98, Metabolic Activation: RAT, LIVER, S-9, PCB, Method: PREINCUBATION", "value": "inactive; negative"}, {"measurement": "mutagenic call", "setting": "Test System: AMES SALMONELLA TYPHIMURIUM, Strain/Indicator: TA100(FR1), Metabolic Activation: NONE, Method: STANDARD PLATE", "value": "inactive; negative"}, {"measurement": "mutagenic call", "setting": "Test System: AMES SALMONELLA TYPHIMURIUM, Strain/Indicator: TA100(FR1), Metabolic Activation: RAT, LIVER, S-9, PHENOBARBITAL AND 3-METHYLCHOLANTHRENE, Method: STANDARD PLATE", "value": "inactive; negative"}, {"measurement": "mutagenic call", "setting": "Test System: AMES SALMONELLA TYPHIMURIUM, Strain/Indicator: TA100, Metabolic Activation: GUINEA PIG, LIVER, S-9, PCB, Method: PREINCUBATION", "value": "inactive; negative"}, {"measurement": "mutagenic call", "setting": "Test System: AMES SALMONELLA TYPHIMURIUM, Strain/Indicator: TA100, Metabolic Activation: HAMSTER, LIVER, S-9, PCB, Method: PREINCUBATION", "value": "inactive; negative"}, {"measurement": "mutagenic call", "setting": "Test System: AMES SALMONELLA TYPHIMURIUM, Strain/Indicator: TA100, Metabolic Activation: MOUSE, LIVER, S-9, PCB, Method: PREINCUBATION", "value": "inactive; negative"}, {"measurement": "mutagenic call", "setting": "[3]", "value": "inactive; negative"}, {"measurement": "mutagenic call", "setting": "Test System: AMES SALMONELLA TYPHIMURIUM, Strain/Indicator: TA100, Metabolic Activation: NONE, Method: STANDARD PLATE", "value": "inactive; negative"}, {"measurement": "mutagenic call", "setting": "[4]", "value": "inactive; negative"}, {"measurement": "mutagenic call", "setting": "Test System: AMES SALMONELLA TYPHIMURIUM, Strain/Indicator: TA100, Metabolic Activation: RAT, LIVER, S-9, PCB, Method: PREINCUBATION", "value": "inactive; negative"}, {"measurement": "mutagenic call", "setting": "Test System: AMES SALMONELLA TYPHIMURIUM, Strain/Indicator: TA100, Metabolic Activation: RAT, LIVER, S-9, PHENOBARBITAL AND 3-METHYLCHOLANTHRENE, Method: STANDARD PLATE", "value": "inactive; negative"}, {"measurement": "mutagenic call", "setting": "Test System: AMES SALMONELLA TYPHIMURIUM, Strain/Indicator: TA102, Metabolic Activation: NONE, Method: STANDARD PLATE", "value": "inactive; negative"}, {"measurement": "mutagenic call", "setting": "Test System: AMES SALMONELLA TYPHIMURIUM, Strain/Indicator: TA102, Metabolic Activation: RAT, LIVER, S-9, AROCLOR 1254, Method: STANDARD PLATE", "value": "inactive; negative"}, {"measurement": "mutagenic call", "setting": "Test System: AMES SALMONELLA TYPHIMURIUM, Strain/Indicator: TA104, Metabolic Activation: NONE, Method: STANDARD PLATE", "value": "inactive; negative"}, {"measurement": "mutagenic call", "setting": "Test System: AMES SALMONELLA TYPHIMURIUM, Strain/Indicator: TA104, Metabolic Activation: RAT, LIVER, S-9, AROCLOR 1254, Method: STANDARD PLATE", "value": "inactive; negative"}, {"measurement": "mutagenic call", "setting": "Test System: CHINESE HAMSTER V-79, Strain/Indicator: V-79/6-THIOGUANINE, Metabolic Activation: NONE", "value": "inactive; negative"}, {"measurement": "mutagenic call", "setting": "Test System: CHINESE HAMSTER V-79, Strain/Indicator: V-79/6-THIOGUANINE, Metabolic Activation: RAT, LIVER, HEPATOCYTES", "value": "inactive; negative"}, {"measurement": "mutagenic call", "setting": "Test System: CHINESE HAMSTER V-79, Strain/Indicator: V-79/OUABAIN, Metabolic Activation: NONE", "value": "inactive; negative"}, {"measurement": "mutagenic call", "setting": "Test System: CHINESE HAMSTER V-79, Strain/Indicator: V-79/OUABAIN, Metabolic Activation: RAT, LIVER, HEPATOCYTES", "value": "inactive; negative"}]}, {"smiles": "CSC[C@H](N)C(=O)O", "values": [{"measurement": "mutagenic call", "setting": "[1]", "value": "inactive; negative"}, {"measurement": "mutagenic call", "setting": "Test System: AMES SALMONELLA TYPHIMURIUM, Strain/Indicator: TA98, Metabolic Activation: RAT, LIVER OR KIDNEY, MICROSOMES, Method: PREINCUBATION", "value": "inactive; negative"}, {"measurement": "mutagenic call", "setting": "[3]", "value": "inactive; negative"}, {"measurement": "mutagenic call", "setting": "Test System: AMES SALMONELLA TYPHIMURIUM, Strain/Indicator: TA100, Metabolic Activation: RAT, LIVER OR KIDNEY, MICROSOMES, Method: PREINCUBATION", "value": "inactive; negative"}, {"measurement": "mutagenic call", "setting": "Test System: AMES SALMONELLA TYPHIMURIUM, Strain/Indicator: TA102, Metabolic Activation: NONE, Method: PREINCUBATION", "value": "inactive; negative"}, {"measurement": "mutagenic call", "setting": "Test System: AMES SALMONELLA TYPHIMURIUM, Strain/Indicator: TA102, Metabolic Activation: RAT, LIVER OR KIDNEY, MICROSOMES, Method: PREINCUBATION", "value": "inactive; negative"}, {"measurement": "mutagenic call", "setting": "Test System: AMES SALMONELLA TYPHIMURIUM, Strain/Indicator: TA2638, Metabolic Activation: NONE, Method: PREINCUBATION", "value": "inactive; negative"}, {"measurement": "mutagenic call", "setting": "Test System: AMES SALMONELLA TYPHIMURIUM, Strain/Indicator: TA2638, Metabolic Activation: RAT, LIVER OR KIDNEY, MICROSOMES, Method: PREINCUBATION", "value": "inactive; negative"}]}, {"smiles": "COc1ccc2c(c1)-c1nn(CCCN(C)C)c3ccc([N+](=O)[O-])c(c13)N2", "values": [{"measurement": "mutagenic call", "setting": "Test System: Mouse lymphoma, Strain/Indicator: L5178Y (tk+/tk-), Metabolic Activation: None, Method: Suspension/plate", "value": "active; positive"}, {"measurement": "mutagenic call", "setting": "Test System: Mouse lymphoma, Strain/Indicator: L5178Y (tk+/tk-), Metabolic Activation: Rat, Liver, S-9, Aroclor 1254, Method: Suspension/plate", "value": "active; positive"}]}, {"smiles": "Cc1cc(N(C)C)ccc1N=Nc1ccccc1", "values": [{"measurement": "mutagenic call", "setting": "Test System: AMES SALMONELLA TYPHIMURIUM, Strain/Indicator: TA98, Metabolic Activation: RAT, LIVER, MICROSOMES, 2-METHYL-4-DIMETHYLAMINOAZOBENZENE, Method: PREINCUBATION", "value": "inactive; negative"}, {"measurement": "mutagenic call", "setting": "Test System: AMES SALMONELLA TYPHIMURIUM, Strain/Indicator: TA98, Metabolic Activation: RAT, LIVER, MICROSOMES, AROCLOR 1254, Method: PREINCUBATION", "value": "active; positive"}, {"measurement": "mutagenic call", "setting": "Test System: AMES SALMONELLA TYPHIMURIUM, Strain/Indicator: TA98, Metabolic Activation: RAT, LIVER, MICROSOMES, Method: PREINCUBATION", "value": "inactive; negative"}, {"measurement": "mutagenic call", "setting": "[2]", "value": "active; positive"}, {"measurement": "mutagenic call", "setting": "Test System: AMES SALMONELLA TYPHIMURIUM, Strain/Indicator: TA98, Metabolic Activation: RAT, LIVER, S-9, KC500 OR PHENOBARBITAL, Method: LIQUID SUSPENSION", "value": "active; positive"}, {"measurement": "mutagenic call", "setting": "[4]", "value": "active; positive"}, {"measurement": "mutagenic call", "setting": "Test System: AMES SALMONELLA TYPHIMURIUM, Strain/Indicator: TA100, Metabolic Activation: RAT, LIVER, S-9, KC500 OR PHENOBARBITAL, Method: LIQUID SUSPENSION", "value": "active; positive"}, {"measurement": "mutagenic call", "setting": "Test System: UDS RODENT HEPATOCYTES, Strain/Indicator: THY INCORP (NON-S-PHASE), Method: AUTORADIOGRAPHY", "value": "active; positive"}]}]}
